The text below walks through data of patent publication US10093898B2, “Purification of functional human astrocytes” (The Board of Trustees of the Leland Stanford Junior …, priority 2015, dated 2018).

Bounds are passed on as bounds.

This assay relates to purified human astrocytes. Briefly: Calcium imaging of purified human astrocytes (Fluo-4 AM) after ATP or glutamate stimulation. In kind it is cell-based. The conditions noted are these: for calcium response (increased intracellular calcium concentrations): 30 nM-670 μM. In general terms: A change in cytosolic calcium serves as a functional read-out for many receptors and channels.

Protocol: Therefore, we performed calcium imaging on purified human astrocytes after loading cells grown in vitro with the calcium sensitive dye Fluo-4 AM.
Calcium imaging. Purified human astrocytes were plated at 100,000 cells/imaging chamber (MatTek, P35GC-1.0-14-C) coated with poly-d-lysine. Cells were grown for at least 5 days before imaging. Cells were incubated for 15 minutes with 2 μM Fluo 4 AM (Invitrogen, F-14201) and then washed 3 times with PBS and replaced with 1.5 ml of growth medium per chamber. The cells were then let to recover from mechanical stimulation for 3 minutes and then imaged in a humidified, temperature-controlled chamber with a 40× oil objective. Images were taken at 0.7 s intervals and analyzed with ImageJ.

As for `Nc1ncnc2c1ncn2[C@@H]1O[C@H](COP(=O)(O)OP(=O)(O)OP(=O)(O)O)[C@@H](O)[C@H]1O` [ATP], the “calcium response (increased intracellular calcium concentrations)” value (fetal human astrocytes) was “responded”. For the setting “postnatal human astrocytes”, the “temporal pattern of calcium response” value was “asynchronous oscillatory response” and the “calcium response (increased intracellular calcium concentrations)” value is recorded as “responded to both”.
Regarding `N[C@@H](CCC(=O)O)C(=O)O` [glutamate], under “postnatal human astrocytes”, the “temporal pattern of calcium response” value is reported as “synchronous non-oscillatory response” and the “calcium response (increased intracellular calcium concentrations)” value is reported as “responded to both”. In addition, the “time for intracellular calcium to decrease to baseline levels” value (postnatal human astrocytes, independent of concentration) was at most 10 s.
